Laboratory results as given in US5698547A, “Cephalosporin antibiotics” (Microcide Pharmaceuticals, Inc., priority 1995, dated 1997).
Values after ≈ are worked out from the molar mass of the structure shown.

Test system: S. aureus Col (Meth^R) (lac^-)
Assay: MIC by agar dilution, S. aureus Col (Meth^R) (lac^-)
Type: cell-based
Settings: Staphylococcus aureus; agar dilution; S. aureus Col (Meth^R) (lac^-); read-out: MIC
Description: The compounds of the invention were evaluated against several β-lactamresistant bacteria strains by determining the minimum inhibitory concentration (MIC, μg/ml) of each compound with respect to each strain. The MIC, the lowest concentration of antibiotic which inhibits growth of the test organism, was determined by the agar dilution method.
To determine the MIC for bacterial isolates, the test compound was incorporated in a series of two-fold dilutions into liquified Mueller-Hinton agar. Upon solidification, a number of different bacterial strains were spot inoculated with a replicating device onto the agar surface. […] The procedures used in these studies have been standardized by the National Committee for Clinical Laboratory Standards (NCCLS), as per the NCCLS publication entitled METHODS FOR DILUTION ANTIMICROBIAL SUSCEPTIBILITY TESTS (1991), which is incorporated herein by reference.
Aliquots of antimicrobial agents were prepared in phosphate buffered saline (PBS) at pH 7.2. Tween 20 or DMSO was used as a solubilizing vehicle as needed. Standard methods of vortexing, sonicating and gentle heat were used to facilitate solubilizing the test agent. Typically, the concentration of the stock solution was 10× that of the highest drug concentration tested. A 1.28 mg/mL stock solution was used with a subsequent highest working concentration of 128 μg/mL. Serial two-fold dilutions were done through ≤0.25 μg/mL. Each drug level was tested in duplicate. Two-fold drug dilutions were done in sterile 50 mL tubes with a final drug volume of 5 mL. Upon the addition of 45 mL of molten agar, a 10-fold dilution resulted. Two, 25 mL. plates were then poured into 15×150 mm square Petri plates with grids and allowed to harden.
A control plate with a reference drug, either cefotaxime, vancomycin or imipenem, was used as the positive growth control. Stock concentrations of reference antibiotics were prepared and frozen at -80° C. Upon preparation, the control plates were sealed and stored in the refrigerator for up to 1 week prior to use; however, imipenem control plates had to be prepared just prior to use. All test plates were used within 24 hours of preparation.
Satisfactory results were obtained where the inoculum contained about 10^4 colony forming units (cfu) ±0.5 logs. Starting with pure cultures of the test isolates on agar plates, a few isolated colonies were transferred to a tube of nutrient broth and allowed to grow 4-6 hours at 35°-36° C. to reach log-phase growth. Dropwise addition of the broth culture to PBS was done to match a 0.5 McFarland turbidity standard equal to 10^8 cfu/mL. This was further diluted ten-fold in PBS to reach a working inoculum concentration of 10^7 cfu/mL. When 1 μL of the working inoculum was applied to the agar surface a concentration of about 10^4 cfu per spot was obtained.
Disposable sterile 1 μL loops were used to inoculate test plates, with each isolate in a designated grid on the agar plate. An alternate method of inoculation involved the use of a replica plater, a device with 48 steel pins allowing the simultaneous inoculation of multiple isolates. After the spots had dried, the plates were incubated at 35°-36° C. for 16-20 hours. Endpoints were assessed as the minimum inhibitory concentration (MIC) of antimicrobial agent.
The novel agents of this invention are notable for their enhanced activity against S. aureus Col and Enterococci (E. faecium and E. faecalis). The S. aureus Col strain is a high-level PBP2a producer, whereas S. aureus Col 8A, its isogenic partner, lacks PBP2a. […] Thus, the compounds of the present invention are effective against PBP2a-producing bacteria.

Compound	MIC [µg/mL]
O=C(Cc1cccs1)N[C@@H]1C(=O)N2C(C(=O)O)=C(Sc3cc(Cl)ccc3Cl)CS[C@H]12 [Cmpd 26, (7R)-7-[(2-Thienylacetyl)amino]-3-(2,5-dichlorophenylthio)-3-cephem-4-carboxylic acid]	0.5 (≈ 0.997 µM)
O=C(Cc1ccccc1)N[C@@H]1C(=O)N2C(C(=O)O)=C(Sc3ccccc3-c3ccco3)CS[C@H]12 [Cmpd 27, (7R)-7-[(Phenylacetyl)amino]-3-(2-(2-furyl)phenylthio)-3-cephem-4-carboxylic acid]	1 (≈ 2.03 µM)
O=C(Cc1ccccc1)N[C@@H]1C(=O)N2C(C(=O)O)=C(Sc3ccc(Cl)cc3Cl)CS[C@H]12 [Cmpd 28, (7R)-7-[(Phenylacetyl)amino]-3-(2,4-dichlorophenylthio)-3-cephem-4-carboxylic acid]	1 (≈ 2.02 µM)
COc1ccc(CC(=O)N[C@@H]2C(=O)N3C(C(=O)O)=C(Sc4ccccc4I)CS[C@H]23)cc1 [Cmpd 29, (7R)-7-[(p-Methoxyphenylacetyl)amino]-3-(o-iodophenylthio)-3-cephem-4-carboxylic acid]	1 (≈ 1.72 µM)
O=C(COc1ccc(Cl)cc1)N[C@@H]1C(=O)N2C(C(=O)O)=C(Sc3ccccc3I)CS[C@H]12 [Cmpd 30, (7R)-7-[(p-Chlorophenoxyacetyl)amino]-3-(o-iodophenylthio)-3-cephem-4-carboxylic acid]	0.5 (≈ 0.829 µM)
O=C(COc1ccc(Cl)cc1)N[C@@H]1C(=O)N2C(C(=O)O)=C(Sc3cc(Cl)ccc3Cl)CS[C@H]12 [Cmpd 31, (7R)-7-[(p-Chlorophenoxyacetyl)amino]-3-(2,5-dichlorophenylthio)-3-cephem-4-carboxylic acid]	1 (≈ 1.83 µM)
COc1ccc(CC(=O)N[C@@H]2C(=O)N3C(C(=O)O)=C(Sc4cc(Cl)ccc4Cl)CS[C@H]23)cc1 [Cmpd 32, (7R)-7-[(p-Methoxyphenylacetyl)amino]-3-(2,5-dichlorophenylthio)-3-cephem-4-carboxylic acid]	1 (≈ 1.9 µM)
O=C(Cc1ccccc1)N[C@@H]1C(=O)N2C(C(=O)O)=C(Sc3cc(F)ccc3Br)CS[C@H]12 [Cmpd 33, (7R)-7-[(Phenylacetyl)amino]-3-(2-bromo-5-fluorophenylthio)-3-cephem-4-carboxylic acid]	1 (≈ 1.91 µM)
N#CCC(=O)N[C@@H]1C(=O)N2C(C(=O)O)=C(Sc3ccccc3-c3ccccc3)CS[C@H]12 [Cmpd 34, (7R)-7-[(Cyanoacetyl)amino]-3-(2-biphenylthio)-3-cephem-4-carboxylic acid]	2 (≈ 4.43 µM)
O=C(CSc1ccccc1)N[C@@H]1C(=O)N2C(C(=O)O)=C(Sc3cc(Cl)ccc3Cl)CS[C@H]12 [Cmpd 35, (7R)-7-[(Phenylthioacetyl)amino]-3-(2,5-dichlorophenylthio)-3-cephem-4-carboxylic acid]	0.5 (≈ 0.948 µM)
C=Cc1ccccc1SC1=C(C(=O)O)N2C(=O)[C@@H](NC(=O)Cc3ccccc3)[C@H]2SC1 [Cmpd 36, (7R)-7-[(Phenylacetyl)amino]-3-(2-vinylphenylthio)-3-cephem-4-carboxylic acid]	2 (≈ 4.42 µM)
O=C(Cc1ccccc1)N[C@@H]1C(=O)N2C(C(=O)O)=C(Sc3ccccc3-c3cccs3)CS[C@H]12 [Cmpd 37, (7R)-7-[(Phenylacetyl)amino]-3-(2-(2-thienyl)phenylthio)-3-cephem-4-carboxylic acid]	2 (≈ 3.93 µM)
O=C(Cc1ccccc1)N[C@@H]1C(=O)N2C(C(=O)O)=C(Sc3ccccc3CO)CS[C@H]12 [Cmpd 38, (7R)-7-[(Phenylacetyl)amino]-3-(2-hydroxymethylphenylthio)-3-cephem-4-carboxylic acid]	4 (≈ 8.76 µM)
O=C(Cc1ccccc1)N[C@@H]1C(=O)N2C(C(=O)O)=C(Sc3ccc(Br)cc3Br)CS[C@H]12 [Cmpd 39, (7R)-7-[(Phenylacetyl)amino]-3-(2,4-dibromophenylthio)-3-cephem-4-carboxylic acid]	0.5 (≈ 0.856 µM)
O=C(Cc1ccccc1)N[C@@H]1C(=O)N2C(C(=O)O)=C(Sc3ccc(C(F)(F)F)cc3)CS[C@H]12 [Cmpd 40, (7R)-7-[(Phenylacetyl)amino]-3-(4-trifluoromethylphenylthio)-3-cephem-4-carboxylic acid]	4 (≈ 8.09 µM)
Nc1nc(/C(=N/O)C(=O)N[C@@H]2C(=O)N3C(C(=O)O)=C(Sc4ccccc4-c4ccccc4)CS[C@H]23)cs1 [Cmpd 42, (7R)-7-[(Z)-2-(aminothiazol-4-yl)-2-(hydroxyimino)acetamido]-3-(2-biphenylthio)-3-cephem-4-carboxylic acid]	4 (≈ 7.22 µM)
COc1ccc(Cc2ccc(-c3ccccc3SC3=C(C(=O)O)N4C(=O)[C@@H](NC(=O)Cc5ccccc5)[C@H]4SC3)s2)cc1 [Cmpd 43, (7R)-7-[(Phenylacetyl)amino]-3-(2-(2-(4-methoxyphenylmethyl)thien-5-yl)phenylthio)-3-cephem-4-carboxylic acid]	4 (≈ 6.36 µM)
CSc1ccccc1SC1=C(C(=O)O)N2C(=O)[C@@H](NC(=O)Cc3ccccc3)[C@H]2SC1 [Cmpd 44, (7R)-7-[(Phenylacetyl)amino]-3-(2-methylthiophenylthio)-3-cephem-4-carboxylic acid]	2 (≈ 4.23 µM)
Cn1cc[n+](Cc2ccc(-c3ccccc3SC3=C(C(=O)[O-])N4C(=O)[C@@H](NC(=O)Cc5ccccc5)[C@H]4SC3)s2)c1 [Cmpd 45, (7R)-7-[(Phenylacetyl)amino]-3-(2-(2-(N-methylimidazoliummethyl)thien-5-yl)phenylthio)-3-cephem-4-carboxylic acid]	4 (≈ 6.64 µM)
CC(C)(C)c1ccccc1SC1=C(C(=O)O)N2C(=O)[C@@H](NC(=O)Cc3ccccc3)[C@H]2SC1 [Cmpd 46, (7R)-7-[(Phenylacetyl)amino]-3-(2-tert-butylphenylthio)-3-cephem-4-carboxylic acid]	1 (≈ 2.07 µM)
CC(C)Oc1ccccc1SC1=C(C(=O)O)N2C(=O)[C@@H](NC(=O)Cc3ccccc3)[C@H]2SC1 [Cmpd 47, (7R)-7-[(Phenylacetyl)amino]-3-(2-isopropyloxyphenylthio)-3-cephem-4-carboxylic acid]	1 (≈ 2.06 µM)
Cn1cc[n+](Cc2ccoc2-c2ccccc2SC2=C(C(=O)[O-])N3C(=O)[C@@H](NC(=O)Cc4ccccc4)[C@H]3SC2)c1 [Cmpd 48, (7R)-7-[(Phenylacetyl)amino]-3-(2-(3-(N-methylimidazoliummethyl)furan-2-yl)phenylthio)-3-cephem-4-carboxylic acid]	4 (≈ 6.82 µM)
N#Cc1ccc(SC2=C(C(=O)O)N3C(=O)[C@@H](NC(=O)Cc4ccccc4)[C@H]3SC2)c([N+](=O)[O-])c1 [Cmpd 49, (7R)-7-[(Phenylacetyl)amino]-3-(4-cyano-2-nitrophenylthio)-3-cephem-4-carboxylic acid]	4 (≈ 8.06 µM)
O=Cc1ccccc1SC1=C(C(=O)O)N2C(=O)[C@@H](NC(=O)Cc3ccccc3)[C@H]2SC1 [Cmpd 50, (7R)-7-[(Phenylacetyl)amino]-3-(2-formylphenylthio)-3-cephem-4-carboxylic acid]	2 (≈ 4.4 µM)
N#Cc1ccc(SC2=C(C(=O)O)N3C(=O)[C@@H](NC(=O)Cc4ccccc4)[C@H]3SC2)c(C#N)c1 [Cmpd 51, (7R)-7-[(Phenylacetyl)amino]-3-(2,4-dicyanophenylthio)-3-cephem-4-carboxylic acid]	4 (≈ 8.39 µM)
N#CCC(=O)N[C@@H]1C(=O)N2C(C(=O)O)=C(Sc3ccccc3C#N)CS[C@H]12 [Cmpd 52, (7R)-7-[(Cyanoacetyl)amino]-3-(2-cyanophenylthio)-3-cephem-4-carboxylic acid]	4 (≈ 9.99 µM)
